The source made the active and inactive calls. The calls are words filed in the database; no cut-off is given here.
How the values were obtained:
SW-620 = test: Antiproliferative activity against human SW620 cells assessed as reduction in cell viability incubated for 72 hrs by MTT assay; type: functional, cell-based; conditions: SW-620, 72 h
HCT-116 = test: Antiproliferative activity against human HCT-116 cells assessed as reduction in cell viability incubated for 72 hrs by MTT assay; type: functional, cell-based; conditions: HCT-116, 72 h
Plasmodium berghei [1] = test: Antiplasmodial activity against hepatic stage of Plasmodium berghei sporozoites infected in human Huh-7 cells assessed as reduction in parasite growth at 1 uM incubated for 1 hr by bioluminescence assay; type: functional, organism-based
[2] = Antiproliferative activity against human HEK293T cells assessed as reduction in cell viability incubated for 72 hrs by MTT assay; type: toxicity, cell-based, HEK-293T
Calf thymus DNA [3] = test: Binding affinity to calf thymus DNA assessed as binding constant by UV-Visible absorption spectroscopic analysis; conditions: Bos taurus
Plasmodium berghei [4] = test: Antiplasmodial activity against hepatic stage of Plasmodium berghei sporozoites infected in human Huh-7 cells assessed as reduction in parasite growth at 10 uM incubated for 1 hr by bioluminescence assay; type: functional, organism-based
Plasmodium falciparum [5] = test: Antiplasmodial activity against erythrocytic stage of chloroquine-resistant Plasmodium falciparum Dd2 assessed as inhibition of parasite growth incubated for 3 days by HRP2-ELISA; type: functional, organism-based; conditions: Dd2, 72 h
[6] = Selectivity index, ratio of IC50 for antiproliferative activity against human HEK293T cells to IC50 for antiplasmodial activity against erythrocytic stage of chloroquine-sensitive Plasmodium falciparum 3D7; type: toxicity, cell-based; conditions: read-out: Ratio IC50
[7] = Drug uptake in human MCF7 cells at 10 uM incubated for 30 mins by fluorescence microscopic analysis; type: ADME, cell-based; conditions: mcf7, 0.5 h
RNA [8] = test: Binding affinity to double stranded RNA (unknown origin) by CD spectroscopic analysis; type: nucleic-acid assay
[9] = Selectivity index, ratio of IC50 for antiproliferative activity against human HEK293T cells to IC50 for antiproliferative activity against human MCF7 cells; type: toxicity, cell-based; conditions: HEK293T cells versus MCF7 cells, read-out: Ratio IC50
RNA [10] = test: Binding affinity to double stranded RNA (unknown origin) assessed as increase in fluorescence intensity by fluorescence quenching analysis; type: nucleic-acid assay
MCF7 [11] = test: Antiproliferative activity against human MCF7 cells assessed as reduction in cell viability incubated for 72 hrs by MTT assay; type: functional, cell-based; conditions: MCF7, 72 h
MCF7 [12] = test: Induction of cell cycle arrest in human MCF7 cells assessed as increase in accumulation of cells at G2/M phase at 4.5 uM measured upto 48 hrs by propidium iodide/RNAse A staining based cell sorter analysis; type: functional
HepG2 = test: Antiproliferative activity against human HepG2 cells assessed as reduction in cell viability incubated for 72 hrs by MTT assay; type: functional, cell-based; conditions: HepG2, 72 h
RNA [13] = test: Binding affinity to double stranded RNA (unknown origin) assessed as binding constant by UV-Visible absorption spectroscopic analysis; type: nucleic-acid assay
Plasmodium berghei [14] = test: Antiplasmodial activity against hepatic stage of Plasmodium berghei sporozoites infected in human Huh-7 cells assessed as inhibition of parasite growth incubated for 1 hr by bioluminescence assay; type: functional, organism-based; conditions: Huh-7, 1 h
Calf thymus DNA [15] = test: Binding affinity to calf thymus DNA assessed as thermal stabilization by thermal denaturation based UV-Visible absorption spectroscopic analysis; conditions: Bos taurus
MCF7 [16] = test: Induction of cell cycle arrest in human MCF7 cells assessed as increase in accumulation of cells at G1 phase at 4.5 uM measured upto 48 hrs by propidium iodide/RNAse A staining based cell sorter analysis; type: functional
Plasmodium falciparum [17] = test: Resistance index, ratio of IC50 for antiplasmodial activity against erythrocytic stage of chloroquine-resistant Plasmodium falciparum Dd2 to IC50 for antiplasmodial activity against erythrocytic stage of chloroquine-sensitive Plasmodium falciparum 3D7; type: functional
RNA [18] = test: Binding affinity to double stranded RNA (unknown origin) assessed as thermal stabilization by thermal denaturation based UV-Visible absorption spectroscopic analysis; type: nucleic-acid assay
Plasmodium falciparum [19] = test: Antiplasmodial activity against erythrocytic stage of chloroquine-sensitive Plasmodium falciparum 3D7 assessed as inhibition of parasite growth incubated for 3 days by HRP2-ELISA; type: functional, organism-based; conditions: 3D7, 72 h
dsDNA [20] = test: Binding affinity to double stranded DNA (unknown origin) assessed as increase in fluorescence intensity by fluorescence quenching analysis; type: nucleic-acid assay
dsDNA [21] = test: Binding affinity to double stranded DNA (unknown origin) by CD spectroscopic analysis; type: nucleic-acid assay
[22] = Drug uptake in human MCF7 cells at 10 uM incubated for 1 hr by fluorescence microscopic analysis; type: ADME, cell-based; conditions: mcf7, 1 h
Huh-7 [23] = test: Cytotoxicity against human Huh-7 cells infected with Plasmodium berghei sporozoites at 1 uM by alamar blue staining based assay; type: functional, cell-based
Huh-7 [24] = test: Cytotoxicity against human Huh-7 cells infected with Plasmodium berghei sporozoites at 10 uM by alamar blue staining based assay; type: functional, cell-based
Plasmodium falciparum [25] = test: Gametocytocidal activity against gametocytes of Plasmodium falciparum NF54 assessed as inhibition of ATP production measured after 48 hrs by Bac-TiterGlo analysis; type: functional, organism-based; conditions: NF54, 48 h
MCF7 [26] = test: Induction of cell cycle arrest in human MCF7 cells assessed as increase in accumulation of cells at G1 phase at 0.75 uM measured after 24 hrs by propidium iodide/RNAse A staining based cell sorter analysis; type: functional
MCF7 [27] = test: Induction of cell cycle arrest in human MCF7 cells assessed as increase in accumulation of cells at G2/M phase at 0.75 uM measured upto 48 hrs by propidium iodide/RNAse A staining based cell sorter analysis; type: functional
[28] = Drug uptake in human MCF7 cells at 1 uM incubated for 30 mins by Mitotracker Deep Red staining confocal microscopic analysis; type: ADME, cell-based; conditions: mcf7, 0.5 h
MCF7 [29] = test: Induction of cell cycle arrest in human MCF7 cells assessed as increase in accumulation of cells at G1 phase at 0.75 uM measured after 48 hrs by propidium iodide/RNAse A staining based cell sorter analysis; type: functional
MCF7 [30] = test: Induction of cell cycle arrest in human MCF7 cells assessed as decrease in accumulation of cells at S phase at 0.75 uM measured after 24 hrs by propidium iodide/RNAse A staining based cell sorter analysis; type: functional

Structure (SMILES) | IC50 (SW-620) | IC50 (HCT-116) | Activity (Plasmodium berghei [1]) | IC50 at 72 h [2] | log Ks (Calf thymus DNA [3]) | Activity (Plasmodium berghei [4]) | IC50 (Plasmodium falciparum [5]) | selectivity ratio [6] | Activity (RNA [8]) | selectivity ratio [9] | Activity (RNA [10]) | IC50 (MCF7 [11]) | IC50 (HepG2) | log Ks (RNA [13]) | Activity (Calf thymus DNA [15]) | Ratio IC50 (Plasmodium falciparum [17]) | Activity (RNA [18]) | IC50 (Plasmodium falciparum [19]) | Activity (dsDNA [20]) | Activity (dsDNA [21]) | other results
COc1cc(NC(C)CCCn2cc(Cn3c4cc(OC)ccc4c4ccnc(C)c43)nn2)c2ncccc2c1 (centres undefined) | > 50 µM | 23.2 µM | Active | > 50 µM | 5.5 | Active | 0.906 µM | > 95.5 | inactive | > 5.6 | Active | 8.93 µM | > 50 µM | 4.6 | inactive | 1.73 | inactive | 0.523 µM | Active | inactive | Drug uptake [7]: Active; Activity (MCF7 [12]): inactive; IC50 (Plasmodium berghei [14]): 1.46 µM; Activity (MCF7 [16]): Active
COc1cc(NC(C)CCCn2cc(COc3ccc4[nH]c5c(C)nccc5c4c3)nn2)c2ncccc2c1-c1c(OC)cc(NC(C)CCCn2cc(COc3ccc4[nH]c5c(C)nccc5c4c3)nn2)c2ncccc12 (centres undefined) | > 50 µM | > 50 µM | Active | > 50 µM | 5.8 | Active | 0.0172 µM | > 3250 | inactive | – | Active | > 100 µM | > 50 µM | – | inactive | 1.12 | inactive | 0.0154 µM | Active | inactive | Drug uptake [22]: Not Active; IC50 (Plasmodium berghei [14]): 0.036 µM; Activity (Huh-7 [23]): inactive; Activity (Huh-7 [24]): inactive; IC50 (Plasmodium falciparum [25]): 0.0905 µM
CN(C)c1ccc2nc3ccc(N(C)C)cc3[s+]c2c1 [METHYLENE BLUE ANHYDROUS] | – | – | – | – | – | – | – | – | – | – | – | – | – | – | – | – | – | – | – | – | IC50 (Plasmodium falciparum [25]): 0.506 µM
COc1cc(NC(C)CCCn2cc(COc3ccc4[nH]c5c(C)nccc5c4c3)nn2)c2ncccc2c1 (centres undefined) | 8.94 µM | 18.2 µM | – | 25.2 µM | 3.4 | – | 0.895 µM | – | inactive | 2.67 | inactive | 9.45 µM | 6.67 µM | 3.4 | inactive | 2.11 | inactive | 0.425 µM | inactive | inactive | Drug uptake [7]: Active
CC[C@H](C)[C@H](NC(=O)[C@H]([C@@H](C)CC)N(C)C(C)=O)C(=O)N[C@H](C(=O)N[C@@H](CC(C)C)C(=O)[C@@]1(C)CO1)[C@@H](C)O [EPOXOMYCIN] | – | – | – | – | – | – | – | – | – | – | – | – | – | – | – | – | – | – | – | – | IC50 (Plasmodium falciparum [25]): 0.0167 µM
COc1cc(NC(C)CCCNC(=O)NCc2nccc3c2[nH]c2ccccc23)c2ncccc2c1 (centres undefined) | 2.48 µM | 0.94 µM | Active | 0.68 µM | 5.5 | Active | 6.13 µM | 0.1 | inactive | < 0.48 | Active | 1.43 µM | 0.69 µM | 4.2 | inactive | 1.31 | inactive | 4.7 µM | Active | inactive | Activity (MCF7 [26]): Active; Activity (MCF7 [27]): inactive; Drug uptake [28]: Not Active; Activity (Huh-7 [23]): Active; Activity (Huh-7 [24]): Active; Activity (MCF7 [29]): Active; Activity (MCF7 [30]): Active
COc1cc(NC(C)CCCn2cc(COc3ccc4c(c3)[nH]c3c(C)nccc34)nn2)c2ncccc2c1 (centres undefined) | 6.99 µM | 7.31 µM | – | 7.62 µM | – | – | 0.353 µM | 36 | – | 1.28 | – | 5.93 µM | 7.87 µM | – | – | 1.67 | – | 0.211 µM | – | – | –
